# In patent publication US20220273659A1, “HETEROCYCLIC COMPOUNDS AS KINASE INHIBITORS” (NUVATION BIO INC., priority 2019, published 2022):
# Where a name gives a salt, the structure may show the parent alone. Read-outs that look alike come from different tables or passages of the source.
# Key:
# [1] = target: T1, CDK4 (Homo sapiens, UniProt P11802); assay: In vitro kinase inhibition IC50, luminescence (ADP Glo), retinoblastoma substrate; format: biochemical; conditions: read-out: CDK4/D1 IC50
# T1 construct: purchased Invitrogen PR8064A
# T1 sequence (P11802 whole entry): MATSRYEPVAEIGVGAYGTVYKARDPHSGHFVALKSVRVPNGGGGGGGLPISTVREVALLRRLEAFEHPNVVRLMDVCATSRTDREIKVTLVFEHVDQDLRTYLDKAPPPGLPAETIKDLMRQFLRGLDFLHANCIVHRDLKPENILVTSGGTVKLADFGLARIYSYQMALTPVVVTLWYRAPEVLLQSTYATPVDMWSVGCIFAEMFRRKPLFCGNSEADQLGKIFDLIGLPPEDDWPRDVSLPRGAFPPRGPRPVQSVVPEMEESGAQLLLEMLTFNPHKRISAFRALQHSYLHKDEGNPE
# T1 sequence (P24385 whole entry partner): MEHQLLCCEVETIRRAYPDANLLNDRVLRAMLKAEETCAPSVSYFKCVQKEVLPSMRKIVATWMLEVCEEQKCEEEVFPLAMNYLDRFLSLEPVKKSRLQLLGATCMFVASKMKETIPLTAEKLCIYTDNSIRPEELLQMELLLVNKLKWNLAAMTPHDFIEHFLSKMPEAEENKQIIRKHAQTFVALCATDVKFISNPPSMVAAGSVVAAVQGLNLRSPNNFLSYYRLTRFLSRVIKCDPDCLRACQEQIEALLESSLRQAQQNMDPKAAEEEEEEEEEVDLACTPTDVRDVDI
# Outline: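 CDK4 enzyme (5 nM, Invitrogen) was combined with test compound and a mix of retinoblastoma substrate (1 μM) plus ATP (25 μM) in kinase buffer, 30 μL/well in 96-well half area white plates. After 2H at room temperature, ADP Glo reagent stopped the reaction for 45 min, then detection reagent was added and luminescence was read.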
# [2] = target: T2, CDK6 (Homo sapiens, UniProt Q00534); assay: as above; format: biochemical; conditions: read-out: CDK6/D1 IC50
# T2 construct: purchased Invitrogen PR8422B
# T2 sequence (Q00534 whole entry): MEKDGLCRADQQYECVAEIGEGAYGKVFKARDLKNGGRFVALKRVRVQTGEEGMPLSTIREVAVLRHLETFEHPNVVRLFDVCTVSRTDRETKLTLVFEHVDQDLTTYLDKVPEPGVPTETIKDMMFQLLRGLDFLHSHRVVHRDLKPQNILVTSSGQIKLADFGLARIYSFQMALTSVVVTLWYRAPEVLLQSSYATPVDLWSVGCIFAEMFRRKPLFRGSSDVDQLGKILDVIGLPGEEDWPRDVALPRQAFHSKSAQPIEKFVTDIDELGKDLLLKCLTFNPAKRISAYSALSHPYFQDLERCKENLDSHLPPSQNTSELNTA
# T2 sequence (P24385 whole entry partner): as the sequence (P24385 whole entry partner) above
# Outline: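 Recombinant CDK6 (5 nM) with retinoblastoma substrate (1 μM) and 25 μM ATP, compound at final 0.1–200 nM, incubated 2 h at room temperature. ADP formed detected by ADP-Glo luminescence. IC50 from four-parameter logistic fit of percent inhibition.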
# [3] = target: T3, PI3Kδ kinase (Homo sapiens, UniProt O00329); assay: PI3Kδ kinase assay (ADP-Glo, Reaction Biology); format: biochemical
# T3 construct: purchased Reaction Biology Corporation (assay service)
# T3 sequence (O00329 whole entry): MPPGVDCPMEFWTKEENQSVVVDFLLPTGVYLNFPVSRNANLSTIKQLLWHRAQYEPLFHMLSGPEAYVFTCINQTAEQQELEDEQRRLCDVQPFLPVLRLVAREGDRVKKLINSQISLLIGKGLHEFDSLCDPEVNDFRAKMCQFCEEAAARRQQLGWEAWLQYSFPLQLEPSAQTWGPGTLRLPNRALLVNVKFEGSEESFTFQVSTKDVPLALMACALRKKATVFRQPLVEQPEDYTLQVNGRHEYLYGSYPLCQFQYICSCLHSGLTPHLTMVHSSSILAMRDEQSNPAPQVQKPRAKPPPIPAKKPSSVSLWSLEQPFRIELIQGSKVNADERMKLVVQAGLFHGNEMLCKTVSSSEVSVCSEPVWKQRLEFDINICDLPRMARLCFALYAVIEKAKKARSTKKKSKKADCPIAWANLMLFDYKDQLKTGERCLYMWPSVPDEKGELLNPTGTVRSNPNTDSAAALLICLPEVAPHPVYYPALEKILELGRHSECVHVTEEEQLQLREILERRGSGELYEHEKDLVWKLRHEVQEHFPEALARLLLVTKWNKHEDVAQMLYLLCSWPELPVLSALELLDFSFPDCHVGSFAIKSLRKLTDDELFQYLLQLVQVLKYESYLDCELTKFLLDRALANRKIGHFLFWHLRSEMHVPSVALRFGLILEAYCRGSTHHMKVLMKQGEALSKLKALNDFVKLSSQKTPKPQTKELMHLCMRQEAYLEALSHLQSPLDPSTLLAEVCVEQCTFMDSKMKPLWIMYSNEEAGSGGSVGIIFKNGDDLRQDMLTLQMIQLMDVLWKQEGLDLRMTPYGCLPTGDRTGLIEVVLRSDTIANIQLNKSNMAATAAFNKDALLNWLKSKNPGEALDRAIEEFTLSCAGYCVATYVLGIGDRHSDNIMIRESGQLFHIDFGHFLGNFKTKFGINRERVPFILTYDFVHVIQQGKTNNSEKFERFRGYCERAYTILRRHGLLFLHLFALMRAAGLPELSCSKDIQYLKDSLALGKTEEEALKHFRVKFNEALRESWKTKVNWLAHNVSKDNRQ
# T3 sequence (P27986 whole entry partner): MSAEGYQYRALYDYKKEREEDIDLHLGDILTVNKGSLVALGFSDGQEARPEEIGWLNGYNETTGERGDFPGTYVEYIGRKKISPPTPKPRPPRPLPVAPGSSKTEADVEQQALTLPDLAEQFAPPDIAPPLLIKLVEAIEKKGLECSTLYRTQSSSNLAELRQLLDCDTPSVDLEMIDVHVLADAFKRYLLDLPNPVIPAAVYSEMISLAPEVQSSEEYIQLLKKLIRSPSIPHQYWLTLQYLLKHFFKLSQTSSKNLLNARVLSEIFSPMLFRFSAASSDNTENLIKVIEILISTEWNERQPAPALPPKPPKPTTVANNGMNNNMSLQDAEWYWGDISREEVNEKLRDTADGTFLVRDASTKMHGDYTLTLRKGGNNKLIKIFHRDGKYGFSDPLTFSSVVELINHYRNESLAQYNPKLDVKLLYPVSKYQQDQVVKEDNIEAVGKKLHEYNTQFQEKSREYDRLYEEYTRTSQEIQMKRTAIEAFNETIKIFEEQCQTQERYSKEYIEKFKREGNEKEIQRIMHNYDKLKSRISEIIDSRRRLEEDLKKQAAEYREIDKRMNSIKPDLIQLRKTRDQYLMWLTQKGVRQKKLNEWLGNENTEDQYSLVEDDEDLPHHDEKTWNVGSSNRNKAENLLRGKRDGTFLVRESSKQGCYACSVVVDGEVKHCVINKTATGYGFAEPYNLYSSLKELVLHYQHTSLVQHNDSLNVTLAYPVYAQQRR
# Outline: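 Kinase in Tris-HCl 40 mM pH 7.5, MgCl2 20 mM, orthovanadate 3 mM, DTT 2 mM, 0.05% CHAPS, 1% DMSO, preincubated 10 min at room temperature with compound (about 0.5 nM–100 μM). ATP started a 30-min reaction at 30 °C. ADP-Glo luminescence converted to μM ADP via standard curve; IC50 from nonlinear regression.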
# [4] = target: T4, FMS kinase (Homo sapiens, UniProt P07333); assay: LanthaScreen Eu Kinase Binding Assay (ATP, fluorescent-PolyGT substrate); format: biochemical
# T4 construct: purchased Invitrogen (Life Technologies)
# T4 sequence (P07333 20-972): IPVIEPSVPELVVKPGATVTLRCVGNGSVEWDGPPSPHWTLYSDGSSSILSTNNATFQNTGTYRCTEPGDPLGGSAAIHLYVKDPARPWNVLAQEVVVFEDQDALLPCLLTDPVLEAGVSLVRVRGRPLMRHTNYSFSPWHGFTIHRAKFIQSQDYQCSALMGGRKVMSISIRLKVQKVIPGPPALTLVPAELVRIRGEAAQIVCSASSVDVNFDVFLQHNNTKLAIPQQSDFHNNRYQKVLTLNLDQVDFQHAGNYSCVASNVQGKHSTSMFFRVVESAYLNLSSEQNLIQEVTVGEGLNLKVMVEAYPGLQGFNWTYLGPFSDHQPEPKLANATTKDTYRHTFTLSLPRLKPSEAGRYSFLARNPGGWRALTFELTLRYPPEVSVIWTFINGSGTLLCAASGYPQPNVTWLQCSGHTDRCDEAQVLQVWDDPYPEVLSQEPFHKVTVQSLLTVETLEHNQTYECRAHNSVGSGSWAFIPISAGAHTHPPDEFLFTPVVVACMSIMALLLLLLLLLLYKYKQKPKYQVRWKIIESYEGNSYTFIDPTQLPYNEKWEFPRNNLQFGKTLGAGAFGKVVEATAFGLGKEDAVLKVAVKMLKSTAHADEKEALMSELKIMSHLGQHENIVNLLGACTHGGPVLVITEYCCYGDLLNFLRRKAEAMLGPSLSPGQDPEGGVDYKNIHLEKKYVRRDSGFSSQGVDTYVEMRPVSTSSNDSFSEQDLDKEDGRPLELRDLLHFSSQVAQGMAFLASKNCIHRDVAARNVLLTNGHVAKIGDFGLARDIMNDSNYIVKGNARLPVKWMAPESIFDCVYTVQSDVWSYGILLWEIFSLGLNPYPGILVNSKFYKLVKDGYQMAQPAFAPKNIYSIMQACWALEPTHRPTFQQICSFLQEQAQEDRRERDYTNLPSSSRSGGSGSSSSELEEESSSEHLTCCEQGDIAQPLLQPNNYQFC
# Outline: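 Kinase (1.25 nM) preincubated 10 min with 3-fold compound dilutions, then ATP 10 μM and fluorescent PolyGT substrate 200 nM added for 1 h in the dark at room temperature. Stopped with Tb-antibody (4 nM) and EDTA 20 mM; TR-FRET at 340 nm excitation, 495/520 nm emission; IC50 from four-parameter fit.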
# [5] = target: T5, CDK1 (cyclin B) (Homo sapiens, UniProt P06493); assay: Z'-LYTE kinase assay; format: biochemical
# T5 construct: purchased Invitrogen Life Technologies (assay service)
# T5 sequence (P06493 whole entry): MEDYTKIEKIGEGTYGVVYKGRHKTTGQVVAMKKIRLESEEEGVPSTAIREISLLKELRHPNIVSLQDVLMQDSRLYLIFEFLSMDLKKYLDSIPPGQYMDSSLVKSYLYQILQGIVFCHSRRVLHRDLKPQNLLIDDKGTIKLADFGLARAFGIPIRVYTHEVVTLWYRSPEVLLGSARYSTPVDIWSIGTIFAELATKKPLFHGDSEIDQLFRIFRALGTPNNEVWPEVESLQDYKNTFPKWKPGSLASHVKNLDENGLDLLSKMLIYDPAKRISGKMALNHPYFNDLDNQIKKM
# T5 sequence (P14635 whole entry partner): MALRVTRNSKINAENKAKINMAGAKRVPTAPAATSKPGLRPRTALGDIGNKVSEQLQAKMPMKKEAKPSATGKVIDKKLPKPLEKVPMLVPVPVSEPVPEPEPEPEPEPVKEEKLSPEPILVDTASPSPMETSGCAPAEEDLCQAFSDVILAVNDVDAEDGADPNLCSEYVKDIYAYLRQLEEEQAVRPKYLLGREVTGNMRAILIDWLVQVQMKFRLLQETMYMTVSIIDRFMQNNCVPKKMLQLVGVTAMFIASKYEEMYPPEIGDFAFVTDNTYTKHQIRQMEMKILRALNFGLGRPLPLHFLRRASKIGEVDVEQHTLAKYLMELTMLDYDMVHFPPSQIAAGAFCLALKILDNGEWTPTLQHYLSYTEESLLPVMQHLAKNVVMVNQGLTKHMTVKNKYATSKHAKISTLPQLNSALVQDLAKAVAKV
# Protocol: The plates were shaken for 30 seconds, and incubated for 60 minutes at room temperature. […] The plates were read on fluorescence plate reader with Dual emission at 445 nm and 520 nm.
# The following equations were used for Z′-LYTE™ Screening Assay Data Analysis.
# [6] = test system: MCF-7 breast adenocarcinoma cells; assay: Cancer cell proliferation assay, single agent (cell viability); format: cell-based; conditions: Homo sapiens, MCF7, Table 4; Rb positive; treatment 144 Hr with medium change at 72 Hr; Cell Titer-Glo or resazurin
# Outline: (§1)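 Cells seeded day 1, then exposed on day 2 to 7–9 compound concentrations (e.g. 1.1 nM–10 μM); BT-549 for 24 h, MCF-7 and DU4475 for 144 h with medium change at 72 h. Viability by CellTiter-Glo or resazurin; IC50 from variable-slope sigmoidal fit.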
# [7] = test system: DU4475 breast carcinoma cells; assay: as above; format: cell-based; conditions: Homo sapiens, DU-4475; Table 4; Rb negative; treatment 144 Hr with medium change at 72 Hr; Cell Titer-Glo or resazurin
# Outline: as §1
# [8] = target: T6, CDK2 (cyclin A) (Homo sapiens, UniProt P24941); assay: Z'-LYTE kinase assay; format: biochemical
# T6 construct: purchased Invitrogen Life Technologies (assay service)
# Outline: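 FRET-based Z′-LYTE read-out using 1.22–10.3 ng CDK2/cyclin A with Ser/Thr 12 peptide (2 μM in the 2× mix) and ATP (31 μM as the 4× solution), in HEPES pH 7.5, MgCl2, EGTA and BRIJ-35, for 60 min at room temperature. After 1 h of development, the 445/520 nm emission was read, and percent inhibition was fitted to a four-parameter logistic curve for IC50.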
Compound,IC50 [1] [nM],IC50 [2] [nM],IC50 [3] [nM],IC50 [4] [nM],IC50 ([5]; read-out: CDK1/B IC50) [nM],IC50 [6] [nM],IC50 [7] [nM],IC50 [8] [nM],IC50 [5] [nM]
"N#Cc1cc2cnc(Nc3ccc4c(c3)CCNC4)nc2n(C2COCC2O)c1=O (stereo not shown) [Compound No. 101, 8-(4-hydroxytetrahydrofuran-3-yl)-7-oxo-2-((1,2,3,4-tetrahydroisoquinolin-6-yl)amino)-7,8-dihydropyrido[2,3-d]pyrimidine-6-carbonitrile]",> 200,> 200,7770,55,> 5000,> 30000,> 30000,1740,
"CS(=O)(=O)N1CCC(Nc2ncc3cc(C#N)c(=O)n(C4CCCCC4)c3n2)CC1 [Compound No. 367, 8-cyclohexyl-2-((1-(methylsulfonyl)piperidin-4-yl)amino)-7-oxo-7,8-dihydropyrido [2,3-d] pyrimidine-6-carbonitrile]",55,7.4,539,102,,640,5160,308,2920
"N#Cc1cc2cnc(Nc3ccc4c(c3)CCNC4)cc2n(C2CCCC2)c1=O [Compound No. 90, 1-cyclopentyl-2-oxo-7-((1,2,3,4-tetrahydroisoquinolin-6-yl)amino)-1,2-dihydro-1,6-naphthyridine-3-carbonitrile]",132,115,4940,,> 5000,,4900,619,
"N#Cc1cc2cnc(Nc3ccc4c(c3)CCNC4)nc2n(C2CCCC2O)c1=O (stereo not shown) [Compound No. 346, 8-(2-hydroxycyclopentyl)-7-oxo-2-((1,2,3,4-tetrahydroisoquinolin-6-yl)amino)-7,8-dihydropyrido[2,3-d]pyrimidine-6-carbonitrile]",> 200,57,10200,18,> 5000,> 30000,10100,177,
"CN(C)S(=O)(=O)N1CCC(Nc2ncc3cc(C#N)c(=O)n(C4CCCC4)c3n2)CC1 [Compound No. 366, 4-((6-cyano-8-cyclopentyl-7-oxo-7,8-dihydropyrido[2,3-d]pyrimidin-2-yl)amino)-N,N-dimethylpiperidine-1-sulfonamide]",22,4.5,> 48200,925,,320,2410,151,2930
"N#Cc1cc2ccc(Nc3ccc(N4CCNCC4)cc3)nc2n(C2CCCC2)c1=O [Compound No. 94, 1-cyclopentyl-2-oxo-7-((4-(piperazin-1-yl)phenyl)amino)-1,2-dihydro-1,8-naphthyridine-3-carbonitrile]",> 200,> 200,> 50000,,> 5000,1940,485,> 5000,
"CCOCCCn1c(=O)c(C#N)cc2cnc(Nc3ccc4c(c3)CCNC4)nc21 [Compound No. 343, 8-(3-ethoxypropyl)-7-oxo-2-((1,2,3,4-tetrahydroisoquinolin-6-yl)amino)-7,8-dihydropyrido[2,3-d]pyrimidine-6-carbonitrile]",> 200,> 200,770,6.5,> 5000,1280,5720,> 3120,
"CS(=O)(=O)N1CCC(Nc2ncc3cc(C#N)c(=O)n(C4CCC4)c3n2)CC1 [Compound No. 368, 8-cyclobutyl-2-((1-(methylsulfonyl)piperidin-4-yl)amino)-7-oxo-7,8-dihydropyrido [2,3-d] pyrimidine-6-carbonitrile]",34,3.4,1980,,,405,1390,28,331
"CN1CCN(c2ccc(Nc3cc4c(cn3)cc(C#N)c(=O)n4C3CCCC3)cc2)CC1 [Compound No. 87, 1-cyclopentyl-7-((4-(4-methylpiperazin-1-yl)phenyl)amino)-2-oxo-1,2-dihydro-1,6-naphthyridine-3-carbonitrile]",58,21,549,,> 5000,,6700,> 3640,
"CN(C)C1CCc2ccc(Nc3ncc4cc(C#N)c(=O)n(C5CCCC5)c4n3)cc2C1 (stereo not shown) [Compound No. 48, 8-cyclopentyl-2-((7-(dimethylamino)-5,6,7,8-tetrahydronaphthalen-2-yl)amino)-7-oxo-7,8-dihydropyrido[2,3-d]pyrimidine-6-carbonitrile]",14,6,945,3,488,945,,140,
"N#Cc1cc2cnc(Nc3ccc4c(c3)CCNC4)nc2n(C2CCC2)c1=O [Compound No. 91, 8-cyclobutyl-7-oxo-2-((1,2,3,4-tetrahydroisoquinolin-6-yl)amino)-7,8-dihydropyrido[2,3-d]pyrimidine-6-carbonitrile hydrochloride]",84,28,705,,913,,510,79,
"N#Cc1cc2cnc(Nc3ccc(N4CCNCC4)cc3)cc2n(C2CCCC2)c1=O [Compound No. 88, 1-cyclopentyl-2-oxo-7-((4-(piperazin-4-yl)phenyl)amino)-1,2-dihydro-1,6-naphthyridine-3-carbonitrile]",34,12,905,,> 5000,,1560,1100,
"N#Cc1cc2ccc(Nc3ccc4c(c3)CNCC4)nc2n(C2CCCC2)c1=O [Compound No. 326, 1-cyclopentyl-2-oxo-7-((1,2,3,4-tetrahydroisoquinolin-7-yl)amino)-1,2-dihydro-1,8-naphthyridine-3-carbonitrile]",> 200,> 200,> 50000,,> 5000,3520,4240,> 5000,
"CC1(C)NCCc2cc(Nc3ncc4cc(C#N)c(=O)n(C5CCCC5)c4n3)ccc21 [Compound No. 92, 8-cyclopentyl-2-((1,1-dimethyl-1,2,3,4-tetrahydroisoquinolin-6-yl)amino)-7-oxo-7,8-dihydropyrido[2,3-d]pyrimidine-6-carbonitrile]",15,6,725,,118,,420,16,
"N#Cc1cc2cnc(Nc3ccc4c(c3)C(=O)NCC4)nc2n(C2CCCC2)c1=O [Compound No. 6, 8-cyclopentyl-7-oxo-2-((1-oxo-1,2,3,4-tetrahydroisoquinolin-7-yl)amino)-7,8-dihydropyrido[2,3-d]pyrimidine-6-carbonitrile]",8,2,163,< 1,> 4650,1160,,873,
"CN1CCC(c2ccc(Nc3cc4c(cn3)cc(C#N)c(=O)n4C3CCCC3)cc2)CC1 [Compound No. 89, 1-cyclopentyl-7-((4-(1-methylpiperidin-4-yl)phenyl)amino)-2-oxo-1,2-dihydro-1,6-naphthyridine-3-carbonitrile]",20,10,751,,> 5000,,5200,874,
"N#Cc1cc2cnc(Nc3ccc4c(c3)CNCC4)cc2n(C2CCCC2)c1=O [Compound No. 95, 1-cyclopentyl-2-oxo-7-((1,2,3,4-tetrahydroisoquinolin-7-yl)amino)-1,2-dihydro-1,6-naphthyridine-3-carbonitrile]",> 200,> 184,4700,,> 5000,3580,1500,2040,
